From article PMC4767940 (PLoS ONE, 2016)

Key:
CD8+ T cells = conditions: cited from earlier work
[1] = biological target: H-2D^b on the surface of RMA-S cells (mouse (endogenous in RMA/S)); assay: flow cytometry on cells

O=CC[C@@H](O)[C@H](O)[C@H](O)CO [2-deoxyglucose]
formation of memory CD8+ T cell responses (CD8+ T cells): augments the formation of memory CD8+ T cell responses

GP33-41 peptide (wildtype GP33 epitope of LCMV)
half-life of the peptide on H-2D^b [1]: > 5 h
